The record followed here is article PMC8143291, “Cytotoxicity and Microbicidal Activity of Commonly Used Organic Solvents: A Comparative Study and Application to a Standardized Extract from Vaccinium macrocarpon” (Toxics, 2021).

Assay [1] relates to HaCaT (immortalized human keratinocytes). The assay is described as follows: MTT dye-reduction cytotoxicity assay (ISO 10993-5). It is filed as cell-based. Particulars: solvent alone, n = 3; for MTC (maximum tolerated concentration): 72 h, at least 70% of cells viable; for IC50 (CI 95%): 72 h incubation. The source says: The cell lines utilized in this study included the human tumor lines A-375 (malignant melanoma) and A-431 (non-melanoma epidermoid squamous skin carcinoma) as well as the models for non-tumorigenic cells—HaCaT (immortalized human keratinocytes) and CCL-1^TM (transformed mouse fibroblasts, NCTC clone 929). The first three cell lines were obtained from CLS Cell Lines Service (GmbH, Eppelheim, Germany). CCL-1^TM was purchased from the American Type Culture Collection (ATCC, Manassas, VA, USA). Cells were maintained in a controlled environment—sterile cell culture flasks in a CO2 incubator Panasonic MCO-18AC (Panasonic Healthcare co., ltd, Oizumi-Machi, Japan) at 37 °C and a humidified atmosphere containing 5% CO2. CCL-1 was cultured in MEM with 10% heat-inactivated horse serum and 2 mM L-glutamine, and the cell culture medium for the rest of the cell lines was DMEM-HG with 4.5 g/L glucose with the addition of 10% heat-inactivated fetal bovine serum and 4 mM L-glutamine. Pen/strep (concentration of penicillin G sodium 10^5 Units/L and of streptomycin sulfate 100 mg/L) was added to both culture media. The cell lines were maintained as an adherent monolayer in a log phase. The cells were sub-cultivated about 1–3 times per week after the monolayer reached 80–90% confluence. The medium was removed from the flask, and the cell monolayer was washed with 3–5 mL PBS. The cells were incubated with 0.05% EDTA in PBS for 8–10 min, followed by the next step where all cell lines were subjected to enzyme cell detachment. HaCaT and CCL-1 monolayers were detached with 1 mL solution of trypsin/EDTA (0.1%/0.05% for HaCaT and 0.25% (w/v)/0.53 mM for CCL-1) and incubated for 2–5 min at 37 °C (for HaCaT) or at room temperature (for CCL-1 cells), whereas Accutase® was used for A-375 and A-431 lines. The incubation lasted until the separation and dispersion of the cells in the monolayer were observed using light microscopy. In the end, all cell lines were resuspended in 10 mL medium and centrifuged for 3 min at 300× g. The cell pellet was resuspended in fresh medium and sub-cultivated at a seeding density of 1.0 × 10^4 cells/cm^2.
The MTT test was performed in order to determine the median inhibitory (IC50) and MTC concentrations of the solvents and PAC according to Annex C, ISO 10993-5 [2, 21]. Briefly, 100 µL of the cell suspension (1 × 10^5 cells/mL) were seeded per well in 96-well plates with a flat bottom. The cells were incubated for 24 h, allowing them to enter the log phase of their growth. On the 24th hour, the cells were treated with the solvents or CystiCran® solutions in concentrations ranging between 0.004% and 2% volume fraction (v/v) and incubated further for 72 h. The incubation periods are following the recommendations of the FDA guide for the use of ISO 10993-1 [1]. At the end of the incubation period, 10 µL of an MTT solution (5 mg/mL) were added to each well, and the plates were kept at 37 °C for 2 hours. Thereafter, the medium was aspirated, and the formed formazan crystals were dissolved in 100 μL/well of 2-propanol supplemented with 5% formic acid. The same solvent was used as a blank. Untreated cells were considered as a negative control. […] The absorption was measured at 540 nm (reference filter at 690 nm) on a microplate reader ELx800 (BioTek Instruments, Inc., Winooski, VT, Winooski, VT, USA).
The IC50 values from the MTT assay were evaluated with a non-linear regression analysis (Curve fit, GraphPad Prizm 6.01 software, GraphPad Software Inc., San Diego, CA, USA) using sigmoidal concentration–response curves. The cell viability is presented as a percentage of the untreated control. At least four wells were seeded for every concentration. Three independent assays were performed (n = 3).

The subject of another assay is P. aeruginosa ATCC 27853. In words: Broth microdilution MIC/MBC. It counts as cell-based, Pseudomonas aeruginosa. Particulars: 24 h exposure; v/v; n = 3. From the text: The bacterial strains used for AST of the solvents included: Staphylococcus aureus (ATCC 29213), Staphylococcus aureus—MRSA (NBIMCC 8327—resistant to methicillin and oxacillin, National Bulgarian Collection for Industrial Microorganisms and Cell Cultures, Sofia, Bulgaria), Streptococcus pyogenes (SAIMC 10535, Collection of the Stephan Angeloff Institute of Microbiology, Sofia, Bulgaria), Enterococcus faecalis (ATCC 29212), Escherichia coli (ATCC 35218), Pseudomonas aeruginosa (ATCC 27853), and Yersinia enterocolitica (IP864 O:3, Collection of Institut Pasteur, Paris, France). The selected strains are the most often investigated ones in the AST research studies in correspondence with the standard ISO 20776-1 Part 1: Reference method for testing the in vitro activity of antimicrobial agents against rapidly growing aerobic bacteria involved in infectious diseases. The antimycotic activity was tested on Candida albicans (CBS 562, Utrecht, The Netherlands). The strains S. aureus, MRSA, E. coli and E. faecalis were grown on Mueller–Hinton broth/agar (MHB/MHA); S. pyogenes, P. aeruginosa, Y. enterocolitica and C. albicans were grown on brain heart infusion (BHI) broth/agar; E. coli was also grown on Luria–Bertani broth/agar (LBB/LBA).
The minimum inhibitory concentration (MIC) for each solvent was estimated by the broth microdilution method (BMD) in 96-well microplates, following ISO 20776/1-2006 [3] and CLSI protocols. Briefly, a standardized bacterial inoculum was prepared from each bacterial species by suspending 3–4 colonies from a pure culture into 4 mL sterile saline. The turbidity of the inocula was adjusted to McFarland 0.5 (1.0 × 10^8 CFU/mL, λ = 600 nm), and 50 µL were resuspended in 10 mL of the appropriate culture medium for each strain. The bacterial inocula were added to microtiter trays containing equivalent volumes of medium loaded with the relevant solvent in concentrations varying from 0.025 to 25% volume fraction. The final volume of each sample was 100 µL/well. The plates were incubated at 37 °C for 24 h. The pure culture medium served as a negative control. Every MIC was evaluated visually as the lowest concentration without visible growth. […] MBC was defined as the lowest compound’s concentration reducing the colony growth of the initial bacterial inoculum by ≥ 99.9%.

For the molecule “polyethylene glycol of average molecular weight 400 [PEG-400]”, the “MTC (maximum tolerated concentration)” value in assay [1] is listed as 0.41 % (v/v). For the same molecule, in the assay on P. aeruginosa ATCC 27853, the MBC is listed as above 25% and the MIC came out at 25%.

For the molecule `CCO` [EtOH, ethanol], in assay [1], the “MTC (maximum tolerated concentration)” value is listed as > 2 % (v/v) and the “IC50 (CI 95%)” value is given as > 2 % (v/v). Also, in the assay with P. aeruginosa ATCC 27853, the MBC is on record as above 25% and the MIC is reported as above 25%.

For the molecule `C[S+](C)[O-]` [DMSO, dimethyl sulfoxide], the “IC50 (CI 95%)” value in assay [1] is recorded as 1.25 % (v/v). For the same molecule, in the assay on P. aeruginosa ATCC 27853, the MBC is recorded as above 25% and the MIC is listed as 6.25%.
